Like-named read-outs stand apart in the source and are kept apart here.
Assays:
Format in all cases: cell-based
[1] = test system: phosphorylated ERK (Thr202/Tyr204) in NCI-H358 cells expressing mutant RAS(G12C); test: Inhibition of RAS-mediated signal transduction: phosphorylated ERK ELISA in NCI-H358 cells; conditions: NCI-H358 cells, 2 hours of treatment, pERK normalized by Janus Green B, read-out: p-ERK IC50 (NCI H358)
Protocol: The cells were treated with or without the compound of the present disclosure (dimethyl sulfoxide, DMSO), and the final concentration of DMSO was guaranteed to be 0.5%. After 2 hours of treatment, the medium was removed and 4% paraformaldehyde (Beyotime catalog number E672002-0100) was added and left to stand for 20 minutes. Cells were washed with PBS after fixation and incubated with precooled methanol for 10 min to permeabilize the cell membrane.
The level of phosphorylated ERK was detected using an enzyme linked immunosorbent assay (ELISA) method. […] The plates were washed 5 times with PBS containing 0.05% Tween 20. […] The reaction was stopped by adding 1 mol/L H2SO4, and the OD value was read at 450 nm by EnVision (PerkinElmer).
The total number of cells per well was detected by Janus Green B staining method. After detecting the level of phosphorylated ERK, the 96-well plate was washed with PBS until colorless, and 0.1% Janus Green B (Abcam catalogue number ab111622) was added to incubate for 10 minutes. After the 96-well plate was washed with double distilled water, 0.1 mol/L HCl was added, then the mixture was shaked and incubated for 10 minutes. The OD value was read at 595 nm by EnVision (PerkinElmer).
The signal of pERK (Thr202/Tyr204) was normalized by the signal value of Janus Green B, and the inhibition percentage after drug treatment relative to DMSO reference was calculated. The percentage values were fitted by a four-parameter dose-response curve and generated IC50 values.

[2] = test system: MIA PaCa2 cells expressing KRAS-G12C; test: Growth inhibition of tumor cell line expressing KRAS-G12C (Cell Titer Glo), MIA PaCa2; conditions: MIA-Paca2, 72 hours
Protocol: (§1) The ability of the compounds of the present disclosure to inhibit the growth of cells expressing KRAS-G12C was evaluated by measuring the cell viability and calculating the GI50 values.
(§2) The tumor cell line NCI-H358 (ATCC catalogue number CRL-5807) expressing KRAS-G12C was cultured in RPMI medium supplemented with 10% fetal bovine serum and penicillin/streptomycin, and the tumor cell line MIA PaCa2 (ATCC CRL-1420) expressing KRAS-G12C was cultured in DMEM medium supplemented with 10% fetal bovine serum, 2.5% horse serum, and penicillin/streptomycin.
(§3) Cells NCI-H358 and MIA-Paca2 were inoculated into black transparent bottom 384-well plate (PerkinElmer catalogue number 6007460) with cell density of 1000 and 800 respectively, and the cells were allowed to adhere to the wall overnight (8-12 hours). After the cells adhered to the wall, the experimental group was added with the compound of the present disclosure diluted 5 times the concentration of the working solution (final concentration containing 0.1% dimethyl sulfoxide, i.e. DMSO); the control group was added with the same dilution as the experimental group (final concentration containing 0.1% DMSO). After 72 hours, Cell Titer Glo reagent (Promega catalogue number G7572) was used to detect ATP content according to the instruction method to determine the amount of cell proliferation. The brief operation steps were as follows: the cell plate was taken out and kept at normal temperature for equilibrium for 30 minutes; Cell Titer Glo reagent with the same volume as the culture was added; the culture plate was placed on a shaker for shaking and cracking for 2 minutes; the culture plate was left to stand at room temperature for 10 minutes; then the light signal value was read by microplate reader EnVision (PerkinElmer).
(§4) Data from all experimental groups were used to calculate the respective percent inhibition using the DMSO group, and the GI50 was calculated using the data processing software GraphPad to analyze the inhibition rates produced by the 9 compound dose concentrations diluted at ⅓-fold ratio.

[3] = test system: NCI-H358 cells expressing KRAS-G12C; test: Growth inhibition of tumor cell line expressing KRAS-G12C (Cell Titer Glo), NCI-H358
Protocol: as §1, §2, §3, §4

| Compound | IC50 ([1]; Homo sapiens, NCI-H358, 2 h) | GI50 ([2]; Homo sapiens, MIA PaCa-2, 72 h) | GI50 ([3]; Homo sapiens, NCI-H358, 72 h) | IC50 [1] | also measured |
| --- | --- | --- | --- | --- | --- |
| C=CC(=O)N1C[C@@H]2C(=O)N(C)c3c(c4cc(F)c(-c5c(C)ccc6[nH]ncc56)c(F)c4n(-c4c(C)ccnc4C(C)C)c3=O)N2C[C@H]1C [Compound 32A] | 0.274 µM | 0.604 µM | 0.442 µM | – | – |
| C=CC(=O)N1C[C@@H]2C(=O)N(C)c3c(c4cc(F)c(-c5c(O)cccc5F)c(F)c4n(-c4c(C)ccnc4C(C)C)c3=O)N2C[C@H]1C [Compound 21A-1] | – | 0.156 µM | 0.091 µM | 0.104 µM | – |
| C=CC(=O)N1C[C@@H]2COc3c(c4cc(F)c(-c5c(O)cccc5F)c(F)c4n(-c4c(C(C)C)ncnc4C(C)C)c3=O)N2C[C@H]1C [Compound 19A] | 0.008 µM | 0.014 µM | 0.008 µM | – | – |
| C=CC(=O)N1C[C@@H]2COc3c(c4cc(F)c(-c5c(C)ccc6[nH]ncc56)nc4n(-c4ccccc4C(C)C)c3=O)N2C[C@H]1C (single isomer, unassigned) [Compound 13A] | – | 0.265 µM | 0.059 µM | 0.04 µM | – |
| C=CC(=O)N1C[C@@H]2C(=O)N(C)c3c(c4cc(F)c(-c5c(O)cccc5F)c(F)c4n(-c4c(C(C)C)ncnc4C(C)C)c3=O)N2C[C@H]1C [Compound 20B] | – | – | – | 0.264 µM | GI50 [2]: 1.59 µM; GI50 ([3]; NCI-H358, 72 hours): 0.413 µM |
| C=CC(=O)N1C[C@@H]2CN(CC(N)=O)c3c(c4cc(F)c(-c5c(O)cccc5F)c(F)c4n(-c4c(C)ccnc4C(C)C)c3=O)N2C[C@H]1C [Compound 44A] | 0.58 µM | 1.57 µM | 0.424 µM | – | – |
| C=CC(=O)N1C[C@@H]2CN(C)c3c(c4cc(F)c(-c5c(O)cccc5F)c(F)c4n(-c4c(C)ccnc4C(C)C)c3=O)N2C[C@H]1C (single isomer, unassigned) [Compound 16A-2] | – | – | – | 0.084 µM | GI50 [2]: 0.146 µM; GI50 ([3]; NCI-H358, 72 hours): 0.074 µM |
| C=CC(=O)N1C[C@@H]2COc3c(c4cc(F)c(-c5c(O)cccc5F)nc4n(-c4c(C)ccnc4C(C)C)c3=O)N2C[C@H]1C (single isomer, unassigned) [Compound 5B] | – | – | – | 0.128 µM | GI50 [2]: 3.13 µM; GI50 ([3]; NCI-H358, 72 hours): 0.21 µM |
| C=CC(=O)N1C[C@@H]2C(=O)Nc3c(c4cc(F)c(-c5c(O)cccc5F)c(F)c4n(-c4c(C)ccnc4C(C)C)c3=O)N2C[C@H]1C [Compound 22A] | – | – | – | 0.016 µM | GI50 [2]: 0.024 µM; GI50 ([3]; NCI-H358, 72 hours): 0.01 µM |
| C=CC(=O)N1C[C@@H]2COc3c(c4cc(F)c(-c5c(F)cccc5OC)nc4n(-c4c(C)ccnc4C(C)C)c3=O)N2C[C@H]1C (single isomer, unassigned) [Compound 6A] | – | 0.23 µM | 0.041 µM | 0.065 µM | – |
| C=CC(=O)N1C[C@@H]2CN(C)c3c(c4cc(F)c(-c5c(O)cccc5F)c(F)c4n(-c4c(C)ccnc4C(C)C)c3=O)N2C[C@H]1C (atropisomer, axis not shown) [Compound 16A-1] | – | 0.055 µM | 0.012 µM | 0.011 µM | – |
| C=CC(=O)N1C[C@@H]2CN(C)c3c(c4cc(F)c(-c5c(O)cccc5F)nc4n(-c4ccccc4C(C)C)c3=O)N2C[C@H]1C [Compound 10A] | 0.063 µM | 0.496 µM | 0.184 µM | – | – |
| C=CC(=O)N1C[C@@H]2C(=O)N(C)c3c(c4cc(Cl)c(-c5c(O)cccc5F)c(F)c4n(-c4c(C)ccnc4C(C)C)c3=O)N2C[C@H]1C [Compound 23A-1] | 0.111 µM | 0.281 µM | 0.104 µM | – | – |
| C=CC(=O)N1C[C@@H]2C(=O)N(C)c3c(c4cc(F)c(-c5c(O)cccc5F)c(F)c4n(-c4c(C)ccnc4C(C)C)c3=O)N2C[C@H]1C [Compound 21B-1] | – | – | – | 2.24 µM | – |
| C=CC(=O)N1C[C@@H]2CN(CC(=O)O)c3c(c4cc(F)c(-c5c(O)cccc5F)c(F)c4n(-c4c(C)ccnc4C(C)C)c3=O)N2C[C@H]1C [Compound 39A] | – | – | – | 0.798 µM | – |
| C=CC(=O)N1C[C@@H]2C(=O)N(C)c3c(c4cc(F)c(-c5c(C)ccc6[nH]nc(C7CC7)c56)c(F)c4n(-c4c(C)ccnc4C(C)C)c3=O)N2C[C@H]1C [Compound 47A] | 1.56 µM | – | – | – | – |
| C=CC(=O)N1C[C@@H]2COc3c(c4cc(Cl)c(-c5c(O)cccc5F)nc4n(C)c3=O)N2C[C@H]1C [Compound 9] | 1.96 µM | – | – | – | – |
| C=CC(=O)N1C[C@@H]2C(=O)Nc3c(c4cc(F)c(-c5c(O)cccc5F)c(F)c4n(-c4c(C)ccnc4C(C)C)c3=O)N2C[C@H]1C [Compound 22B] | – | – | – | 0.548 µM | – |
| C=CC(=O)N1C[C@@H]2CN(C)c3c(c4cc(F)c(-c5c(O)cccc5F)c(F)c4n(-c4c(C)ccnc4C(C)C)c3=O)N2C[C@H]1C (single isomer, unassigned) [Compound 16B] | – | – | – | 1.25 µM | – |
| C=CC(=O)N1C[C@@H]2C(=O)N(C)c3c(c4cc(F)c(-c5ccccc5O)c(F)c4n(-c4c(C)ccnc4C(C)C)c3=O)N2C[C@H]1C [Compound 46A] | 2.05 µM | – | – | – | – |
| C=CC(=O)N1C[C@@H]2COc3c(c4cc(Cl)c(-c5c(O)cccc5F)c(F)c4n(C[C@@H]4CCCN4C)c3=O)N2C[C@H]1C [Compound 45A] | 1.54 µM | – | – | – | – |
| C=CC(=O)N1C[C@@H]2C(=O)N(CCN(C)C)c3c(c4cc(Cl)c(-c5c(O)cccc5F)c(F)c4n(-c4c(CC)ccnc4C(C)C)c3=O)N2C[C@H]1C (atropisomer, axis not shown) [Compound 54A-2] | – | – | – | 0.844 µM | – |
| C=CC(=O)N1C[C@@H]2COc3c(c4cc(F)c(-c5c(O)cccc5F)c(F)c4n(-c4c(C)ccnc4C(C)C)c3=O)N2C[C@H]1C [Compound 3A-2] | – | – | – | 5.24 µM | – |
| C=CC(=O)N1C[C@@H]2C(=O)N(C)c3c(c4cc(F)c(-c5c(O)cccc5F)c(F)c4n(-c4c(C)ccnc4C(C)C)c3=O)N2C[C@H]1C [Compound 21B] | – | – | – | 0.306 µM | – |
| C=CC(=O)N1C[C@@H]2C(=O)N(C)c3c(c4cc(F)c(-c5ccccc5F)c(F)c4n(-c4c(C)ccnc4C(C)C)c3=O)N2C[C@H]1C [Compound 31A] | 2.16 µM | – | – | – | – |
| C=CC(=O)N1C[C@@H]2COc3c(c4cc(F)c(-c5c(O)cccc5F)c(F)c4n(-c4c(C)ccnc4C(C)C)c3=O)N2C[C@H]1C [Compound 3A] | – | – | – | 0.474 µM | – |
| C=CC(=O)N1C[C@@H]2COc3c(c4cc(F)c(-c5c(C)ccc6[nH]ncc56)nc4n(-c4ccccc4C(C)C)c3=O)N2C[C@H]1C (single isomer, unassigned) [Compound 13B] | – | – | – | 5.67 µM | – |
| C=CC(=O)N1C[C@]2(CO)C(=O)N(C)c3c(c4cc(F)c(-c5c(O)cccc5F)nc4n(-c4c(C)ccnc4C(C)C)c3=O)N2C[C@H]1C [Compound 51A] | 1.28 µM | – | – | – | – |
| C=CC(=O)N1CCN2c3c(c(=O)n(-c4ccccc4C(C)C)c4nc(-c5c(O)cccc5F)c(F)cc34)OC[C@H]2C1 [Compound 12A] | 0.604 µM | – | – | – | – |
| C=CC(=O)N1C[C@@H]2C(=O)N(CCN(C)C)c3c(c4cc(F)c(-c5c(O)cccc5F)c(F)c4n(-c4c(C)ccnc4C(C)C)c3=O)N2C[C@H]1C [Compound 24A] | 3.82 µM | – | – | – | – |
